Here are results for two compounds from patent publication US9145351B2, “Azole derivatives, methods for producing the same, intermediate thereof, agro-horticultural agents” (KUREHA CORPORATION, priority 2009, dated 2015).

For assay [1], the system named is Septoria tritici. Description: Assay for fungicidal effect on Septoria tritici, plate medium 0.02 mg/L (Experimental Example 7). The class given is cell-based. The source says: In this Experimental Example, the fungicidal effects of the inventive compounds on a phytopathogenic fungi, Septoria tritici were examined and compared to the Comparative Compound (3) described in Patent Literature 1 (JPA01-93574) by the methods described below. […] The subject microorganism previously cultured on a plate medium was cut out using a cork borer whose diameter was 4 mm, and inoculated to the test compound-containing plate medium described above. […] The growth degree of the microorganism on the test compound-containing plate medium thus observed was compared with the growth degree of the microorganism in the untreated group, and % mycelial growth inhibition was calculated by the following equation. R=100(dc−dt)/dc wherein R=% mycelial extension inhibition, dc=flora diameter in untreated plate, dt=flora diameter in treated plate. The results obtained as described above were evaluated as one of the 5 grades according to the following criteria. <Growth Inhibition Grade> […]

In assay [2] the test system is Puccinia recondita. Nature of the assay: Efficacy test against wheat brown rust, 2 mg/L (Experimental Example 8). In kind it is in vivo. The conditions noted are these: sprayed at 1,000 L/ha, concentration printed 0.02 mg/L, 9 to 14 days after inoculation. As for the experimental part: Onto a wheat plant (variety: […] The sprayed leaves were air-dried, and inoculated with spore suspension of Puccinia recondita (adjusted at 200 spores/vision, […] was added at 60 ppm) by spraying, and kept at 25 degrees C. and a high humidity for 48 hours. Thereafter, the plant was kept in a greenhouse. Nine to 14 days after inoculation, the wheat brown rust lesion degree was investigated, and the protective value was calculated by the following equation. Protective value (%)=(1-lesion degree in sprayed plot/lesion degree in unsprayed plot)×100

For assay [3], the system named is Septoria tritici. Nature of the assay: Microplate test of biocidal effect on wheat Septoria blotch (Experimental Example 4). The class given is cell-based. The conditions noted are these: Zymoseptoria tritici, 240 h; % mycelium growth inhibition, absorbance 550 nm, 20 degrees C. for about 10 days; read-out: activity level (EC80). How it is done:
A spore suspension of wheat Septoria blotch (Septoria tritici) (spore concentration: 1×10^6 cells/ml) was prepared, and subjected to 100-fold dilution with a PD medium. A flat 96-well microplate was provided and 1 microliter of the test compound solution formed by dissolution in dimethyl sulfoxide (DMSO) at a concentration 100 times the test concentration was dispensed to the microplate, and then 100 microliter of the medium containing the spore was added and stirred thoroughly. […] R=100×(dc−dt)/dc: R: % mycelium growth inhibition dc: Absorbance of non-treatment zone dt: Absorbance of treatment zone

Assay [4] deals with Septoria tritici. Description: Assay for fungicidal effect on Septoria tritici, plate medium 1.25 mg/L (Experimental Example 9). In kind it is cell-based. The conditions noted are these: Zymoseptoria tritici, read-out: growth inhibition grade. How it is done: Each inventive compound was dissolved in 2 ml of dimethyl sulfoxide. 0.6 ml of this solution was added to 60 nil of a PDA medium (potato dextrose agar medium) at about 60 degrees C., which was mixed thoroughly in a 100-ml conical flask, and poured into a dish, where it was solidified, thereby obtaining a plate medium containing the inventive compound at 50 mg/L and 5 mg/L. On the other hand, a subject microorganism previously cultured on a plate medium was cut out using a cork borer whose diameter was 4 mm, and inoculated to the test compound-containing plate medium described above. […] The growth degree of the microorganism on the test compound-containing plate medium thus observed was compared with the growth degree of the microorganism in the untreated group, and % mycelial growth inhibition was calculated by the following equation. R=100(dc−dt)/dc wherein R=% mycelial extension inhibition, dc=flora diameter in untreated plate, dt=flora diameter in treated plate. The results obtained as described above were evaluated as one of the 5 grades according to the following criteria. […] In this Experimental Example, the fungicidal effects of the inventive compounds on Septoria tritici were examined by the methods described in the Experimental Example 5. In this Experimental Example, the inventive compounds were diluted at 1.25 mg/L.

The test system of assay [5] is Puccinia recondita. Nature of the assay: Efficacy test against wheat brown rust, 1 mg/L (Experimental Example 10). The class given is in vivo. Conditions: 1 g/ha (1 mg/L sprayed at 1,000 L/ha).

The structures appear in SMILES notation. Values after ≈ are worked out from the molar mass of the structure shown.

On to `CC1(C)CC[C@@H](Cc2ccc(F)cc2)[C@]1(O)Cn1cncn1` (racemic) [Compound (3)], for which the “grade (growth inhibition grade)” value in the assay on Septoria tritici [1] was 2 (% Mycerial growth inhibition of less than 40 to 20% or higher). Besides, the “degree (wheat brown rust lesion degree)” value with Puccinia recondita [2] was 3 (10% or higher and less than 30%).
As usually defined, the EC80 is the concentration at which the effect reaches the 80% level. For orientation: inhibition means how much of the control response was suppressed. Consider `CC1(C)CC[C@H](Cc2ccc(Cl)cc2)[C@@]1(O)Cn1cncn1` (racemic) [comparative compound (I), (1RS,5SR)-5-(4-chlorobenzyl)-2,2-dimethyl-1-(1H-1,2,4-triazol-1-ylmethyl)cyclopentanol, reference compound], for which, in the assay with Septoria tritici [3], the EC80 turned out to be 0.4 mg/L (≈ 1.25 µM). In addition, in the assay with Septoria tritici [4], the inhibition at 1.25 µg/mL is 40 to 60%. In the assay on Puccinia recondita [5], the lesion degree was 3 (10% or higher and less than 30%).
